# Measured values as given in patent publication US9340477B2, “Process for production of hydroxystilbene derivative having physiological activity” (UHA MIKAKUTO CO., LTD., priority 2010, dated 2016).
# Legend:
# [1] = target: rat intestine derived lipase; experiment: Lipase inhibitory action test (Lipase kit S); format: biochemical; conditions: rat intestine acetone powder lipase, 30° C., 10 minutes reaction
# Experimental: In order to see the inhibitory action to lipase of the hydroxystilbene derivative, an inhibitory action test using rat intestine derived lipase was performed.
# As lipase, one obtained by suspending 100 mg of rat derived intestine acetone powder (manufactured by Sigma-Aldrich Japan) in 1 mL of 100 mM citric acid buffer (pH 6.0), stirred at 4° C. for 1 hour, centrifuging the same (at 15000 rpm for 45 minutes at 4° C.), and then diluting the supernatant by 1500 times was used as a lipase solution.
# As samples, p-coumaric acid, caffeic acid, sinapic acid, resveratrol, and the UHA1027, the UHA1028, and the UHA9021 which were already purified were used. With respect to the preparation of the samples, each compound was dissolved in DMSO, and then prepared in such a manner as to achieve 0.1 mM, 0.5 mM, 1 mM, 2 mM, and 4 mM.
# For measuring the activity, a “Lipase kit S” (Trade name, manufactured by Dainippon Pharmaceutical Co., Ltd.) was used. First, in accordance with a preparation method described in the catalog of the Lipase kit S, a color developing liquid was prepared. Reaction liquids in which 70 μl of the color developing liquid, 2 μl of an esterase inhibitor, 10 μl of the lipase solution, and 10 μl of the samples (Final concentration: 10 μM, 50 μM, 100 μM, 200 μM, 400 μM, and 1000 μM) were mixed were prepared, preincubated at 30° C. for 5 minutes, and then 8 μl of a substrate solution described in the catalog was added. Then, a reaction was started. After reacting for 10 minutes, 150 μl of a reaction stop liquid prepared in accordance with the preparation method described in the catalog of the Lipase kit S was added to stop the reaction. The resultant substance was subjected to a measurement of absorbancy at a wavelength of 415 nm. A reaction liquid to which only DMSO as the solvent of the sample was added was used as a positive control and one to which 10 μl of 100 mM citric acid buffer (pH 6.0) was added instead of the lipase solution was used as a negative control. From the relationship between the lipase inhibition rate calculated based on the data obtained therefrom and the concentration of each compound, the concentration IC50 at which the lipase activity is inhibited by 50% was calculated.
# [2] = tested on: HL-60 cells (human promyelocytic leokemia cells); experiment: Cancer cell growth suppressing action using HL-60 cells (Cell counting kit-8); format: cell-based; conditions: 24 hours, 6.3-100 μM, viable cells vs DMSO only, read-out: Cell growth suppressing ability to HL-60 (IC50)
# Experimental: Next, in order to see the effect of the hydroxystilbene derivative to cancer cells, cancer cell growth suppressing action using HL-60 cells (human promyelocytic leokemia cells) was tested.
# For culturing the HL-60 cells, an enriched culture medium “RPMI-1640” (manufactured by Sigma-Aldrich Japan) containing 4 mM glutamine (L-Glutamine, manufactured by Sigma-Aldrich Japan) and 10% FBS (Foetal Bovine Serum, manufactured by Biological Industries) was used. For the test, a 96-well plate for cell culture (manufactured by Corning Japan) was used, and the HL-60 cells whose number of cells was adjusted to be 5×10^5 cells/mL were seeded at 100 μL per well
# As samples, p-coumaric acid, ferulic acid, caffeic acid, sinapic acid, resveratrol, pterostilbene, and the UHA1027, the UHA1028, the UHA1123, the UHA1124, the UHA1125, the UHA7032, the UHA7033, and the UHA9021 which were already purified were used. With respect to the preparation of the samples, each compound was dissolved in DMSO (Wako Pure Chemical Industries, Ltd.), and then adjusted in such a manner that the final concentration in the HL-60 cell culture solutions was 6.3 μM, 12.5 μM, 25 μM, 50 μM, and 100 μM. Then, the test was started.
# The number of viable cells was quantified by an MTT method using a “Cell counting kit-8” (manufactured by DOJINDO LABORATORIES). 24 hours after starting the test, 10 μL of a Cell counting kit-8 solution was added to each well, and then sufficiently stirred. After a shading reaction for 1 hour, the absorbancy was measured at a measurement wavelength of 450 nm using a plate leader (Biorad Laboratories, Inc., “BIO-RAD Model 680”). Then, the cell viability was calculated based on the obtained data. The cell viability is a value obtained by setting the number of viable cells of the culture liquid to which only DMSO as a solvent was added to 100%, and then calculating the number of viable cells under the concentration of each compound as a relative value. From the relationship between the concentration of each compound and the cell viability, the concentration IC50 (50% inhibition concentration) at which the cell growth is suppressed by 50% was calculated.
# [3] = tested on: SCC-4 cells (human oral cancer cells, ATCC); experiment: Cancer cell growth suppressing action using SCC-4 oral cancer cells (Cell counting kit-8); format: cell-based; conditions: 6.3-100 μM, Cell counting kit-8, DMSO negative control, read-out: Cell growth suppressing ability (IC50)
# Experimental: Next, in order to see the effect of the hydroxystilbene derivative to oral cancer cells, cancer cell growth suppressing action using SCC-4 cells (human oral cancer cells, ATCC) was tested.
# For culturing the SCC-4 cells, a DMEM/F-12 (1:1) culture medium (manufactured by GIBCO) containing 400 ng/mL hydrocortisone (manufactured by Sigma-Aldrich Japan), 1% antibiotic-antimycotic (manufactured by GIBCO), and 10% FBS (Foetal Bovine Serum, manufactured by ATCC) was used. For the test, a collagen I coat 96 well plate for cell culture (manufactured by Japan BD) was used, and SCC-4 cells whose number of cells was adjusted to be 5×10^5 cells/mL were seeded at 100 μL per well. The cells were cultured under the conditions of 37° C. and 5% CO2 for 24 hours, and were used for the test in a confluent state of 80% or higher.
# As samples, p-coumaric acid, ferulic acid, caffeic acid, sinapic acid, resveratrol, pterostilbene, piceatannol, and the UHA1027, the UHA1028, the UHA1123, the UHA1124, the UHA1125, the UHA7032, the UHA7033, the UHA7034, and the UHA9021 which were already purified were used. With respect to the preparation of the samples, each compound was dissolved in DMSO, and then prepared in such a manner as to achieve 0.63 mM, 1.25 mM, 2.5 mM, 5 mM, and 10 mM. The samples were added in such a manner that the final concentration in the SCC-4 cell culture solution was 6.3 μM, 12.5 μM, 25 μM, 50 μM, and 100 μM. Then, the test was started. A sample to which an equivalent amount of only DMSO as the solvent was added was used as a negative control.
# The number of viable cells was quantified by an MTT method using a “Cell counting kit-8” in the same manner as in Example 15, and the concentration IC50 at which the cell growth is suppressed by 50% was calculated.
# [4] = Physicochemical properties: solubility in solvents
SMILES,IC50 [1] [µM],IC50 [2] [µM],IC50 [3] [µM],Solubility: DMSO [4],Solubility: Chloroform [4],Solubility: Ethanol [4],Solubility: Ethyl acetate [4],Solubility: Methanol [4],Solubility: Water [4]
"CC(c1ccc(O)c(O)c1)c1c(O)cc(/C=C/c2ccc(O)cc2)cc1O (single isomer, unassigned) [UHA1027]",452,5.9,28.9,Soluble,Soluble,Soluble,Soluble,Soluble,Poorly soluble
"CC(c1ccc(O)cc1)c1c(O)cc(/C=C/c2ccc(O)c(O)c2)cc1O (single isomer, unassigned) [UHA7034]",–,–,49.6,Soluble,Soluble,Soluble,Soluble,Soluble,Poorly soluble
"CC(c1ccc(O)cc1)c1c(O)cc(/C=C/c2ccc(O)cc2)cc1O (single isomer, unassigned) [UHA9021]",331,43.4,38.2,Soluble,Soluble,Soluble,Soluble,Soluble,Poorly soluble
"O=C(O)/C=C/c1ccc(O)c(O)c1 [Coffeic acid, caffeic acid, reference compound]",> 1000,> 100,> 100,–,–,–,–,–,–
"COc1cc(/C=C/C(=O)O)ccc1O [Ferulic acid, ferulic acid, reference compound]",–,> 100,> 100,–,–,–,–,–,–
"Oc1cc(O)cc(/C=C/c2ccc(O)c(O)c2)c1 [Piceatannol, piceatannol, reference compound]",–,–,> 100,–,–,–,–,–,–
"COc1cc(/C=C/c2ccc(O)cc2)cc(OC)c1 [Pterostilbene, pterostilbene, reference compound]",–,60.4,73.9,–,–,–,–,–,–
"Oc1ccc(C=Cc2cc(O)cc(O)c2)cc1 [Resveratrol, resveratrol, reference compound]",> 1000,76.5,> 100,–,–,–,–,–,–
"COc1cc(/C=C/C(=O)O)cc(OC)c1O [Sinapic acid, sinapic acid, reference compound]",> 1000,> 100,> 100,–,–,–,–,–,–
COc1cc(C(C)c2c(O)cc(/C=C/c3ccc(O)cc3)cc2O)cc(OC)c1O (stereo not shown) [UHA1028],510,14.1,17.6,Soluble,Soluble,Soluble,Soluble,Soluble,Poorly soluble
COc1cc(C(C)c2c(O)cc(/C=C/c3ccc(O)cc3)cc2O)ccc1O (stereo not shown) [UHA1123],–,31.5,50.3,Soluble,Soluble,Soluble,Soluble,Soluble,Poorly soluble
COc1cc(C(C)c2c(O)cc(O)cc2/C=C/c2ccc(O)cc2)ccc1O (stereo not shown) [UHA1124],–,14.4,17.4,Soluble,Soluble,Soluble,Soluble,Soluble,Poorly soluble
COc1cc(C(C)c2c(O)cc(/C=C/c3ccc(O)cc3)c(C(C)c3ccc(O)c(OC)c3)c2O)ccc1O (stereo not shown) [UHA1125],–,13.4,26.1,Soluble,Soluble,Soluble,Soluble,Soluble,Poorly soluble
COc1cc(/C=C/c2ccc(O)cc2)c(C(C)c2ccc(O)cc2)c(OC)c1 (stereo not shown) [UHA7032],–,31,37,Soluble,Soluble,Soluble,Soluble,Soluble,Poorly soluble
COc1cc(/C=C/c2ccc(O)cc2)cc(OC)c1C(C)c1ccc(O)cc1 (stereo not shown) [UHA7033],–,35.5,41.7,Soluble,Soluble,Soluble,Soluble,Soluble,Poorly soluble
"O=C(O)/C=C/c1ccc(O)cc1 [p-coumaric acid, reference compound]",> 1000,> 100,> 100,–,–,–,–,–,–
